According to patent publication US20260216164A1, “INDOLE COMPOUND DECOMPOSING IKZF2, AND USE THEREOF” (KOREA RESEARCH INSTITUTE OF CHEMICAL TECHNOLOGY, priority 2023, published 2026):

What was measured:
[1] = target: Helios (IKZF2) (Homo sapiens, UniProt Q96SW2+Q9UKS7); assay: Screening of Helios protein degraders using Nano-Glo HiBiT cell line (HiBiT-IKZF2); assay type: cell-based; conditions: for remaining activity at 1 µM: compound 1 μM, read-out: HiBiT-IKZF2 Residual amount of Helios (%) 1 μM; for remaining activity at 1 µM / remaining activity at 10 µM: 6 hours, HiBiT-Helios knock-in Jurkat cells; for remaining activity at 10 µM: compound 10 μM, read-out: HiBiT-IKZF2 Residual amount of Helios (%) 10 μM
Helios (IKZF2), sequence (Q9UKS7 whole entry): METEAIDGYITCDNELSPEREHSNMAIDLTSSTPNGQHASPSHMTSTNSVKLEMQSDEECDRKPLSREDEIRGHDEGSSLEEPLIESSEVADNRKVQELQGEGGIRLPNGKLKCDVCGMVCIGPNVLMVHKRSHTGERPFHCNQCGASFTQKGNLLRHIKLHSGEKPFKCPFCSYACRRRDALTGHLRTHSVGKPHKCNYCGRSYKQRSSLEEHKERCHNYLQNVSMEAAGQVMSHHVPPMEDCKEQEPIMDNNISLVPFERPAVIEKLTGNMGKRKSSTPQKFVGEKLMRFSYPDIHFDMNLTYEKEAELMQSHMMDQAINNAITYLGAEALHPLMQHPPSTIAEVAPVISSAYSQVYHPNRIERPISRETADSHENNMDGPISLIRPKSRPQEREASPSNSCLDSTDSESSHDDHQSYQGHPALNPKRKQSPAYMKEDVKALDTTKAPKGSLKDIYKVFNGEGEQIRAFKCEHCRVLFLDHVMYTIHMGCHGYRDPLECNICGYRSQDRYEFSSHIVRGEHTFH
Helios (IKZF2), sequence (Q96SW2 whole entry): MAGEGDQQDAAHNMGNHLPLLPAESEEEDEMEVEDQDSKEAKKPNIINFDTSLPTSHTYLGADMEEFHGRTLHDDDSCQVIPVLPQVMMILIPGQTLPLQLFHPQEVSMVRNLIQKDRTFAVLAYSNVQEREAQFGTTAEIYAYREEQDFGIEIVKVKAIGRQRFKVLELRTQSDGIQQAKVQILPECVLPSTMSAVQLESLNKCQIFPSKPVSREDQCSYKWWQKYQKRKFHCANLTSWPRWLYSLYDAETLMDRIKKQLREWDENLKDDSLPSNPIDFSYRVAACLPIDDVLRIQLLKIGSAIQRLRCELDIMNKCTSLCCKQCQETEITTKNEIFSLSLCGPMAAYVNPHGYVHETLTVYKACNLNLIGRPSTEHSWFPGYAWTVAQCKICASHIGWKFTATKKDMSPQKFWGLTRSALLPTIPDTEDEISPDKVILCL
Helios (IKZF2), sequence (Q16531 whole entry partner): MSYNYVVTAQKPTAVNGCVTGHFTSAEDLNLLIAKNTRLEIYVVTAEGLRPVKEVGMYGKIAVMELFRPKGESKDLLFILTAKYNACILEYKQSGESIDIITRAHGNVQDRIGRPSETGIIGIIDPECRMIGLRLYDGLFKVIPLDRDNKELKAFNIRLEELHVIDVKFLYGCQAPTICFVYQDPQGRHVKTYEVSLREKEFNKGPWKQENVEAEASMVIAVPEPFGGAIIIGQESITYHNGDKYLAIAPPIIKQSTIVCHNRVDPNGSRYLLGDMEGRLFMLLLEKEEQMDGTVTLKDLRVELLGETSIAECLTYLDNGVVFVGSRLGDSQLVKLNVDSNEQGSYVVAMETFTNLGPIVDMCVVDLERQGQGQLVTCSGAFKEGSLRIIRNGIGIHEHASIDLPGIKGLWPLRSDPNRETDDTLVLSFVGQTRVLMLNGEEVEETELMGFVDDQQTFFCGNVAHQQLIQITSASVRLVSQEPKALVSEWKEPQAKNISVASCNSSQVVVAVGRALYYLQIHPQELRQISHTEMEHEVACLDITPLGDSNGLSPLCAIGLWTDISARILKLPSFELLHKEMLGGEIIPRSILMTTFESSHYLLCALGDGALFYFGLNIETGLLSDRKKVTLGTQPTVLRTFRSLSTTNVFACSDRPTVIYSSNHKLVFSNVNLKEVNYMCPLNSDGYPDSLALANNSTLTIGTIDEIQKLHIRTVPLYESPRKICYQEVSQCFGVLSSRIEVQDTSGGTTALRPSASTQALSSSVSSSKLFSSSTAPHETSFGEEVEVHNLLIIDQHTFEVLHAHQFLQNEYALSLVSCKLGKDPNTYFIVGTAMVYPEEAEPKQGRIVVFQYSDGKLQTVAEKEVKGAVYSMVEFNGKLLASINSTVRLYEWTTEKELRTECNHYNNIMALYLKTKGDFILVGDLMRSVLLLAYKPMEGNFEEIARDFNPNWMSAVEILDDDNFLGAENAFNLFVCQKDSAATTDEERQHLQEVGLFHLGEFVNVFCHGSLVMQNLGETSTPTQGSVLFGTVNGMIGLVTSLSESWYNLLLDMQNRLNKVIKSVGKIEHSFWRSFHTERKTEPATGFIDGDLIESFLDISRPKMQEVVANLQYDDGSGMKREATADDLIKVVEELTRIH

[2] = target: IKZF2 (Helios) (Homo sapiens, UniProt Q96SW2+Q9UKS7); assay: Screening of DC50 (nM) and Dmax (%) using WB-IKZF2 cell line (Western blot); assay type: cell-based; set-up: endogenous in cells; conditions: 6 hours; for DC50: class symbols, read-out: WB-IKZF2 DC 50
IKZF2 (Helios), sequence (Q9UKS7 whole entry): as the sequence (Q9UKS7 whole entry) above
IKZF2 (Helios), sequence (Q96SW2 whole entry): as the sequence (Q96SW2 whole entry) above
IKZF2 (Helios), sequence (Q16531 whole entry partner): as the sequence (Q16531 whole entry partner) above
Description: Experimental Example 2. Screening of DC50 (nM) and Dmax (%) Using WB-IKZF2 Cell Line
Candidate degraders were serially diluted and treated in cells cultured in complete medium, followed by incubation for 6 hours at 37° C. in a CO2 incubator. After 6 hours, the cells were harvested and lysed in RIPA buffer (150 mM NaCl, 1% Triton X-100, 1% sodium deoxycholate, 0.1% SDS, 50 mM Tris-HCl pH 7.5, and 2 mM EDTA) containing a protease inhibitor cocktail (Roche). The mixture was vortexed every 10 minutes and incubated on ice for 30 minutes, followed by centrifugation at 13,000 rpm for 10 minutes at 4° C. to isolate proteins. The isolated proteins were quantified using the Bradford assay (Bio-Rad, 5000006). Proteins were separated on 8% SDS-polyacrylamide gel, transferred onto nitrocellulose membranes (Amersham, 10600002), and incubated with primary antibodies at 4° C. for 18 hours. The following primary antibodies were used: anti-Helios rabbit monoclonal antibody (Cell Signaling, 42427, 1:3000) and anti-β-actin mouse monoclonal antibody (Santa Cruz, sc-47778, 1:5000). β-actin was used as a loading control. The next day, the membranes were washed with 1×TBST for 30 minutes and incubated with HRP-conjugated secondary antibodies corresponding to the primary antibodies at room temperature for 1 hour. The following secondary antibodies were used: anti-mouse IgG HRP-linked antibody (Sigma, A9044, 1:5000) and anti-rabbit IgG HRP-linked antibody (Cell Signaling, 7074, 1:5000). After washing with 1×TBST for 30 minutes, protein expression was visualized using the Pierce ECL Western blotting substrate (Thermo Fisher, 32106), and images were captured using a chemiluminescence image analysis system (GE Healthcare, AI680). The obtained images were quantified using the ImageJ software.

remaining activity at 1 µM [1]	remaining activity at 10 µM [1]	DC50 [2]	Dmax [2]	SMILES	IKZF2 degradation activity (in words, comment on Table 1) ([1]; as shown in Table 1)
27.9%	24%	0.1 to 1 µM	–	Cc1c(C(=O)N2CCC(c3ccc4c(c3)CN(C3CCC(=O)NC3=O)C4=O)CC2)[nH]c2cc(O)ccc12 (stereo not shown) [Compound 47, 3-(5-(1-(6-hydroxy-3-methyl-1H-indole-2-carbonyl)piperidin-4-yl)-1-oxoinsoindolin-2-yl)piperidine-2,6-dione]	–
–	8.21%	0.01 to 0.1 µM	–	Cc1c(C(=O)N2CCC(c3ccc4c(c3)CN(C3CCC(=O)NC3=O)C4=O)CC2)[nH]c2cc(C(F)(F)F)ccc12 (stereo not shown) [Compound 48, 3-(5-(1-(3-methyl-6-(trifluoromethyl)-1H-indole-2-carbonyl)piperidin-4-yl)-1-oxoinsoindolin-2-yl)piperidine-2,6-dione]	–
–	8.67%	0.1 to 1 µM	–	Cc1c(C(=O)N2CCC(c3ccc4c(c3)CN(C3CCC(=O)NC3=O)C4=O)CC2)[nH]c2cc(Br)ccc12 (stereo not shown) [Compound 49, 3-(5-(1-(6-bromo-3-methyl-1H-indole-2-carbonyl)piperidin-4-yl)-1-oxoinsoindolin-2-yl)piperidine-2,6-dione]	–
–	10.8%	0.01 to 0.1 µM	–	Cc1c(C(=O)N2CCC(c3ccc4c(c3)CN(C3CCC(=O)NC3=O)C4=O)CC2)[nH]c2cc(C#N)ccc12 (stereo not shown) [Compound 52, 2-(4-(2-(2,6-dioxopiperidin-3-yl)-1-oxoindolin-5-yl)piperidine-1-carbonyl)-3-methyl-1H-indole-6-carbonitrile]	–
–	7.7%	0.1 to 1 µM	–	Cc1c(C(=O)N2CCC(c3ccc4c(c3)CN(C3CCC(=O)NC3=O)C4=O)CC2)[nH]c2cc(OC(F)(F)F)ccc12 (stereo not shown) [Compound 53, 3-(5-(1-(3-methyl-6-(trifluoromethoxy)-1H-indole-2-carbonyl)piperidin-4-yl)-1-oxoinsoindolin-2-yl)piperidine-2,6-dione]	–
–	5.1%	< 0.01 µM	100%	Cc1c(C(=O)N2CCC(c3ccc4c(c3)CN(C3CCC(=O)NC3=O)C4=O)CC2)[nH]c2cc([N+](=O)[O-])ccc12 (stereo not shown) [Compound 55, 3-(5-(1-(3-methyl-6-nitro-1H-indole-2-carbonyl)piperidin-4-yl)-1-oxoinsoindolin-2-yl)piperidine-2,6-dione]	–
–	5.4%	0.01 to 0.1 µM	–	Cc1c(C(=O)N2CCC(c3ccc4c(c3)CN(C3CCC(=O)NC3=O)C4=O)CC2C)[nH]c2cc(Cl)ccc12 (stereo not shown) [Compound 60, 3-(5-(1-(6-chloro-3-methyl-1H-indole-2-carbonyl)-2-methylpiperidin-4-yl)-1-oxoinsoindolin-2-yl)piperidine-2,6-dione]	–
–	8.1%	0.01 to 0.1 µM	–	Cc1c(C(=O)N2CCC(O)(c3ccc4c(c3)CN(C3CCC(=O)NC3=O)C4=O)CC2)[nH]c2cc(Cl)ccc12 (stereo not shown) [Compound 64, 3-(5-(1-(6-chloro-3-methyl-1H-indole-2-carbonyl)-4-hydroxypiperidin-4-yl)-1-oxoinsoindolin-2-yl)piperidine-2,6-dione]	–
14.2%	25.3%	< 0.01 µM	100%	COc1cc2c(C)c(C(=O)N3CCC(c4ccc5c(c4)CN(C4CCC(=O)NC4=O)C5=O)CC3)[nH]c2cc1Cl (stereo not shown) [Compound 71, 3-(5-(1-(6-chloro-5-methoxy-3-methyl-1H-indole-2-carbonyl)piperidin-4-yl)-1-oxoinsoindolin-2-yl)piperidine-2,6-dione]	–
29.6%	19%	0.1 to 1 µM	–	CCNC(=O)Nc1ccc2c(C)c(C(=O)N3CCC(c4ccc5c(c4)CN(C4CCC(=O)NC4=O)C5=O)CC3)[nH]c2c1 (stereo not shown) [Compound 75, 1-(2-(4-(2-(2,6-dioxopiperidin-3-yl)-1-oxoindolin-5-yl)piperidine-1-carbonyl)-3-methyl-1H-indol-6-yl)-3-ethylurea]	–
–	9.7%	0.1 to 1 µM	–	Cc1c(C(=O)N2CCC(c3ccc4c(c3)CN(C3CCC(=O)NC3=O)C4=O)CC2)[nH]c2cc([N+](=O)[O-])c(Cl)cc12 (stereo not shown) [Compound 84, 3-(5-(1-(5-chloro-3-methyl-6-nitro-1H-indole-2-carbonyl)piperidin-4-yl)-1-oxoinsoindolin-2-yl)piperidine-2,6-dione]	–
–	11%	0.1 to 1 µM	–	Cc1cc2c(C)c(C(=O)N3CCC(c4ccc5c(c4)CN(C4CCC(=O)NC4=O)C5=O)CC3)[nH]c2cc1[N+](=O)[O-] (stereo not shown) [Compound 85, 3-(5-(1-(3,5-dimethyl-6-nitro-1H-indole-2-carbonyl)piperidin-4-yl)-1-oxoinsoindolin-2-yl)piperidine-2,6-dione]	–
–	9.9%	0.01 to 0.1 µM	–	Cc1c(C(=O)N2CCC(c3ccc4c(c3)CN(C3CCC(=O)NC3=O)C4=O)CC2)[nH]c2cc([N+](=O)[O-])c(O)cc12 (stereo not shown) [Compound 86, 3-(5-(1-(5-hydroxy-3-methyl-6-nitro-1H-indole-2-carbonyl)piperidin-4-yl)-1-oxoinsoindolin-2-yl)piperidine-2,6-dione]	–
–	8.7%	0.1 to 1 µM	–	CN(C)Cc1c(C(=O)N2CCC(c3ccc4c(c3)CN(C3CCC(=O)NC3=O)C4=O)CC2)[nH]c2cc(Cl)ccc12 (stereo not shown) [Compound 87, 3-(5-(1-(6-chloro-3-((dimethylamino)methyl)-1H-indole-2-carbonyl)piperidin-4-yl)-1-oxoinsoindolin-2-yl)piperidine-2,6-dione]	–
–	6.2%	< 0.01 µM	100%	Cc1c(C(=O)N2CCC(c3cc4c(cc3F)C(=O)N(C3CCC(=O)NC3=O)C4)CC2)[nH]c2cc(Cl)ccc12 (stereo not shown) [Compound 90, 3-(5-(1-(6-chloro-3-methyl-1H-indole-2-carbonyl)piperidin-4-yl)-6-fluoro-1-oxoinsoindolin-2-yl)piperidine-2,6-dione]	–
–	6.4%	< 0.01 µM	100%	Cc1c(C(=O)N2CCC(c3ccc4c(c3F)CN(C3CCC(=O)NC3=O)C4=O)CC2)[nH]c2cc(Cl)ccc12 (stereo not shown) [Compound 91, 3-(5-(1-(6-chloro-3-methyl-1H-indole-2-carbonyl)piperidin-4-yl)-4-fluoro-1-oxoinsoindolin-2-yl)piperidine-2,6-dione]	–
–	26.5%	< 0.01 µM	100%	Cc1c(C(=O)N2CCC(c3cc4c(cc3F)C(=O)N(C3CCC(=O)NC3=O)C4)CC2)[nH]c2cc([N+](=O)[O-])ccc12 (stereo not shown) [Compound 93, 3-(6-fluoro-5-(1-(3-methyl-6-nitro-1H-indole-2-carbonyl)piperidin-4-yl)-1-oxoinsoindolin-2-yl)piperidine-2,6-dione]	–
–	8.5%	< 0.01 µM	100%	Cc1c(C(=O)N2CCC(c3ccc4c(c3F)CN(C3CCC(=O)NC3=O)C4=O)CC2)[nH]c2cc([N+](=O)[O-])ccc12 (stereo not shown) [Compound 94, 3-(4-fluoro-5-(1-(3-methyl-6-nitro-1H-indole-2-carbonyl)piperidin-4-yl)-1-oxoinsoindolin-2-yl)piperidine-2,6-dione]	–
–	–	0.01 to 0.1 µM	92%	Cc1c(C(=O)N2CCC(c3ccc4c(c3F)CN(C3CCC(=O)NC3=O)C4=O)CC2)[nH]c2cc(Cl)c(C#N)cc12 (stereo not shown) [Compound 119, 6-chloro-2-(4-(2-(2,6-dioxopiperidin-3-yl)-4-fluoro-1-oxoindolin-5-yl)piperidine-1-carbonyl)-3-methyl-1H-indole-5-carbonitrile]	–
–	–	0.01 to 0.1 µM	–	Cc1c(C(=O)N2CCC(c3ccc4c(c3F)CN(C3CCC(=O)NC3=O)C4=O)CC2)[nH]c2cc(C#N)c(F)cc12 (stereo not shown) [Compound 120, 2-(4-(2-(2,6-dioxopiperidin-3-yl)-4-fluoro-1-oxoindolin-5-yl)piperidine-1-carbonyl)-5-fluoro-3-methyl-1H-indole-6-carbonitrile]	–
–	–	0.1 to 1 µM	–	Cc1c(C(=O)N2CCC(c3ccc4c(c3F)C(=O)N(C3CCC(=O)NC3=O)C4=O)CC2)[nH]c2cc(Cl)ccc12 (stereo not shown) [Compound 121, 5-(1-(6-chloro-3-methyl-1H-indole-2-carbonyl)piperidin-4-yl)-2-(2,6-dioxopiperidin-3-yl)-4-fluoroisoindoline-1,3-dione]	–

SMILES	remaining activity at 1 µM [1]	remaining activity at 10 µM [1]	DC50 [2]	Dmax [2]	IKZF2 degradation activity (in words, comment on Table 1) ([1]; as shown in Table 1)
Cc1c(C(=O)N2C3CCC2CC(c2ccc4c(c2)CN(C2CCC(=O)NC2=O)C4=O)C3)[nH]c2cc(Cl)ccc12 (stereo not shown) [Compound 58, 3-(5-(8-(6-chloro-3-methyl-1H-indole-2-carbonyl)-8-azabicyclo[3.2.1]octan-3-yl)-1-oxoinsoindolin-2-yl)piperidine-2,6-dione]	–	5.2%	0.01 to 0.1 µM	–	excellent IKZF2 degradation activity
